Several values for one entry are separate records, joined by “and”; a condition that tells them apart may be missing. Equal entries are not always repeated.
Experiments:
[1] = biological target: T1, recombinant human SIRT1 (Homo sapiens, UniProt Q96EB6); experiment: SIRT1 fluorescent deacetylation assay (p53-382 acetylated peptide substrate); format: biochemical; details: for SIRT1 stimulating activity (in words): 25 μM NAD+, 25 μM p53-382 acetylated peptide
T1 sequence (Q96EB6 1-747): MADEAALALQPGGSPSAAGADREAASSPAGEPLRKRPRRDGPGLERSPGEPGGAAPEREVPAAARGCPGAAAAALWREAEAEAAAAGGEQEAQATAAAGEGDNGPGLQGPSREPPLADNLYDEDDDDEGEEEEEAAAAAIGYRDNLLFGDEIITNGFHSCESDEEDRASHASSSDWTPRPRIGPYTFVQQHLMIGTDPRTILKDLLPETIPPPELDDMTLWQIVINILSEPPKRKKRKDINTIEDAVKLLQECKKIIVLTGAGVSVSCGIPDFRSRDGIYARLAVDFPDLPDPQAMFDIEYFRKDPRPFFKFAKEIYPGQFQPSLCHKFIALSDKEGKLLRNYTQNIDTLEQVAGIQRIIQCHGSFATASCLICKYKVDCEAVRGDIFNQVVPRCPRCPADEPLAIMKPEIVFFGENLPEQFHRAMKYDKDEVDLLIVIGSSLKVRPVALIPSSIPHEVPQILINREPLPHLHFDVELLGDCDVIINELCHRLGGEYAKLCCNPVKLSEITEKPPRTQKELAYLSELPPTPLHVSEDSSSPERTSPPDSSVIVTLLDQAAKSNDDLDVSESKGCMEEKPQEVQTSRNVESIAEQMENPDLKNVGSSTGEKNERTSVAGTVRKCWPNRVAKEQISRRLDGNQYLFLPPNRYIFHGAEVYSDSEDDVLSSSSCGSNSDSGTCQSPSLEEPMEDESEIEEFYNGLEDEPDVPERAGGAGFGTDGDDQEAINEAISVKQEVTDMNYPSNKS
Description: To identify compounds that modulate SIRT1 activity, we screened a number of small molecule libraries using a fluorescent deacetylation assay in 96-well plates^26. The substrate used in the assay was a fluorogenic peptide based on the sequence encompassing the p53-K382 acetylation site, a known target of SIRT1 in vivo^20,21,27. This substrate was preferred over a variety of other fluorogenic peptide substrates that were based on other known HDAC targets (FIG. 5). The small molecule libraries included analogues of nicotinamide, ε-acetyl lysine, NAD^+, nucleotides, nucleotide analogues and purinergic ligands. From the initial screen, several sirtuin inhibitors were found (Supplementary Table 7). However, the most striking outcome was the identification of two compounds, quercetin and piceatannol, that stimulated SIRT1 activity five and eight-fold, respectively (Table 1). Both quercetin and piceatannol have been previously identified as protein kinase inhibitors^28,29.
His6-tagged recombinant SIRT1 and GST-tagged recombinant Sir2 were prepared as previously described^26. From 0.1 to 1 μg of SIRT1 and 1.5 μg of Sir2 were used per deacetylation assay (in 50 μl total reaction) as previously described^26. SIRT1 assays and certain of those for Sir2 employed the p53-382 acetylated substrate (‘Fluor de Lys-SIRT1’, BIOMOL) rather than FdL.
Themed compound libraries (BIOMOL) were used for primary and secondary screening. […] For water soluble compounds and negative controls, 1% v/v DMSO was added to the assay. […] HeLa cells were grown and the cellular deacetylation assays were performed and read, as above, but in full-volume 96-well microplates (Corning Costar 3595). Unless otherwise indicated all initial rate measurements were means of three or more replicates, obtained with single incubation times, at which point 5% or less of the substrate initially present had been deacetylated. Calculation of net fluorescence increases included subtraction of a blank value, which in the case of Sir2 was obtained by omitting the enzyme from the reaction and in the case of SIRT1 by adding an inhibitor (200 μM suramin or 1 mM nicotinamide) to the reaction prior to the acetylated substrate. […] All error bars represent the standard error of the mean.
All SIRT1 rate measurements used in the calculation of “Ratio to Control Rate” were obtained with 25 μM NAD^+ and 25 μM p53-382 acetylated peptide substrate were performed as described above and in K. T. Howitz et al. Nature (2003) 425: 191. All ratio data were calculated from experiments in which the total deacetylation in the control reaction was 0.25-1.25 μM peptide or 1-5% of the initial concentration of acetylated peptide.

[2] = biological target: T2, SIRT1 deacetylase (Homo sapiens, UniProt Q96EB6); experiment: High-throughput SIRT1 screening protocol (384 well); format: biochemical; details: 200 μM NAD+, 5 μM Fluor de Lys-SIRT1 substrate; roughly 50 μM
T2 construct: purchased BIOMOL
T2 sequence (Q96EB6 1-747): T1 sequence (Q96EB6 1-747)
Protocol: The reaction mixture contains (final): 0.5 units/reaction SIRT1 deacetylase (BIOMOL); 200 μM NAD^+; 5 μM Fluor de Lys-SIRT1 substrate (BIOMOL); buffer (25 mM Tris/Cl, pH 8.0, 137 mM NaCl, 2.7 mM KCl, 1 mM MgCl2, and 1 mg/ml BSA). In addition, a reaction mixture containing no enzyme was made so that each well receiving compound has a corresponding “no enzyme control” well. Reactions were performed in black 384 well plates (NUNC) in a final volume of 25 μl/well.
The reactions were started by combining enzyme and substrate in a reaction mixture immediately prior to aliquoting in plates (or substrate only for “no enzyme control” plates). Mixture were aliquoted to plates using Biotek μFill (Biotek Instruments). Control mixtures were manually added to designated wells. A library compound was added at a desired concentration by pin transfer to both “with enzyme” and “no enzyme” plates. Compounds were added in at least triplicate (with enzyme reaction in duplicate and no enzyme controls) at a final concentration of roughly 50 μM. The plates were incubated at 37° C. for 30-60 minutes. Then 25 μl of 1× Developer II (BIOMOL) plus 2 mM nicotinamide were added to all wells to stop the reactions. The reactions were left for at least 30 minutes at 37° C. for the signal to develop. The plates were read in a microplate-reading fluorometer capable of excitation at a wavelength in the range of 350-380 nm and detection of emitted light in the range of 440-460 nm. A read time of 0.1 sec per well was used.

[3] = test system: C. elegans; experiment: C. elegans lifespan assay; format: in vivo; details: 100/500 μM, N2 worms, E. coli as food; untreated 100%
Protocol: Thus, the presence of resveratrol in the growth media of C. elegans extends their lifespan.
Bristol N2 (Caenorhabditis Genetics Center) was used as the wild-type strain. The sir-2.1 mutant strain was generated by backcrossing VC199 (sir-2.1 (ok434)) to N2 four times. Cultures were grown on standard NGM media and maintained on E. coli strain OP50. For the lifespan assays, synchronized animals were transferred to treatment plates as young adults (2 d after hatching, day 0 of assay), and were transferred to fresh treatment plates every 2 days for the first 6 to 8 days of the assay. […] For some lifespan trials, heat-killed OP50 were used as a food source. OP50 cultures were heated to 65° C. for 30 minutes, then pelleted and resuspended in 1/10 volume in S Basal supplemented with 10 mM MgSO4. In all assays, worms were monitored daily for mortality by gently probing with a platinum pick. Assays were performed at 24° C.

[4] = Solution stability (t1/2) from SIRT1 fold-stimulation of aged stock; format: physicochemical; details: ethanol stock 2.5 mM, room temperature, nitrogen atmosphere
Description: The fold-stimulation (ratio to control) obtained with a compound diluted from an aged stock solution was compared to an identical dilution from a stock solution freshly prepared from the solid compound. “t1/2” is defined as the time required for the SIRT1 fold-stimulation of the compound from the aged solution to decay to one-half of that obtained from a freshly prepared solution. […] Stocks were aged by storage at room temperature, in glass vials, under a nitrogen atmosphere.

[5] = test system: S. cerevisiae; experiment: Yeast replicative lifespan by micro-manipulation; details: 10 μM; for Average lifespan: complete 2% glucose medium, wild type untreated 22.9
[6] = test system: Human 293 cells; experiment: Survival of 293 cells (Coulter counter); format: cell-based; details: 50 micromolar
Protocol: Human 293 were grown to exponential phase under standard conditions and subjected to a dose of compound (50 micromolar) for 96 hours. The number of live cells each time point was counted using a Coulter counter.

[7] = test system: D. melanogaster; experiment: D. melanogaster adult survival assay; format: in vivo
Protocol: Survival assays were conducted independently with adult D. melanogaster in two laboratories. In the first laboratory, all trials used an yw marked wild-type strain. […] Newly eclosed adults were placed in 1L demography cages with approximately 75 males and 75 females. Three to four replicate 1L demography cages were used for each treatment group in each trial. Every two days, dead flies were removed and scored, and food vials were replenished. Food vials contained cornmeal-sugar-yeast diet with SAF yeast as either 2% or 3% by weight. […] Fresh stock solutions and adult media were prepared weekly. In the second laboratory, lifespan trials were conducted with the wild type strain Canton-S, dSir2^4.5 and […], University of Oregon), […], Stockholm University, Sweden), and dSir2^KG00871 (Drosophila Stock Center, Bloomington, Ind.). Larvae for all tests were reared on standard cornmeal-sugar-yeast diet. […] In all trials, 20 males with 20 females were placed into each of 10 vials/treatment group. Every two days, flies were passed into new vials and dead flies were counted. […] Fresh stock solution and adult media was prepared weekly.

SMILES: O=C(Nc1cc(O)cc(O)c1)c1ccccc1 [BML-219, N-(3,5-Dihydroxyphenyl)benzamide]
- SIRT1 stimulating activity (in words) [1]: abolished activity

SMILES: COc1ccc(/C=C/c2cc(O)cc(O)c2)cc1 [BML-233, 3,5-Dihydroxy-4′-methoxy-trans-stilbene]
- activation of SIRT1 (positive controls) [2]: 2.1 fold

SMILES: Oc1cc(O)cc(/C=C/c2ccc(Cl)cc2)c1 [BML-217, 3,5-Dihydroxy-4′-chloro-trans-stilbene]
- SIRT1 stimulating activity (in words) [1]: did not significantly diminish

SMILES: Oc1cc(O)cc(/C=C/C2CCCCC2)c1 [BML-224]
- SIRT1 stimulating activity (in words) [1]: nearly as detrimental

SMILES: [N-]=[N+]=Nc1ccc(/C=C/c2cc(O)cc(O)c2)cc1 [BML-232]
- SIRT1 stimulating activity (in words) [1]: very similar SIRT1 activating properties to resveratrol

SMILES: CC(=O)Oc1cc(O)cc(/C=C/c2ccc(O)cc2)c1 [BML-221, 3,4′-Dihydroxy-5-acetoxy-trans-stilbene]
- % change in C. elegans lifespan relative to untreated organisms [3]: >100% (ongoing)
- solution stability relative to resveratrol [4]: vast improvement
- % change in yeast replicative lifespan relative to untreated organisms ([5]; 2% (w/v) glucose YPD, untreated 100%): 165%

SMILES: Cc1ccc(/C=C/c2cc(O)cc(O)c2)cc1 [BML-228]
- Survival of 293 cells ([6]; 0 h): 100%
- Survival of 293 cells ([6]; 48 h): 46%
- Survival of 293 cells ([6]; 96 h): 32%

SMILES: O=c1c(O)c(-c2ccc(O)c(O)c2)oc2cc(O)cc(O)c12 [quercetin]
- stimulation of SIRT1 activity ([1]; initial screen): five
- Average lifespan [5]: 23.4 generations

SMILES: O=c1c(-c2ccc(O)cc2)coc2cc(O)cc(O)c12 [genistein]
- SIRT1 stimulating activity (in words) [1]: absence of activity

SMILES: CCc1ccc(/C=C/c2cc(O)cc(O)c2)cc1 [BML-225]
- Survival of 293 cells ([6]; 0 h): 100%
- Survival of 293 cells ([6]; 48 h): 5%
- Survival of 293 cells ([6]; 96 h): 8%

SMILES: CSc1ccc(/C=C/c2cc(O)cc(O)c2)cc1 [BML-230]
- SIRT1 dose response, stimulated activity compared with resveratrol ([1]; 25 μM NAD+ and p53-382 acetylated peptide, 20 minutes): exceeds that stimulated by resveratrol at all concentrations tested
- ratio (R) of BML-230-stimulated to resveratrol-stimulated SIRT1 rate ([1]; 500 μM activator, 25 μM NAD+ and p53-382 acetylated peptide, 20 minutes): ~1.4
- Survival of 293 cells ([6]; 0 h): 100%
- Survival of 293 cells ([6]; 48 h): 55%
- Survival of 293 cells ([6]; 96 h): 57%

SMILES: O=c1c(O)c(-c2ccc(O)c(O)c2)oc2cc(O)ccc12 [fisetin]
- longevity on restricted diet ([7]; restricted diet): neither resveratrol nor fisetin further increased longevity
- lifespan extension (up to) ([7]; wild type, males and females, independent tests): up to 23%
- Average lifespan [5]: 30.0 generations

SMILES: Oc1cc(O)cc(/C=C/c2ccccc2)c1 [Pinosylvin, 3,5-Dihydroxy-trans-stilbene]
- SIRT1 stimulating activity (in words) [1]: did not significantly diminish
- activation of SIRT1 (positive controls) [2]: 3.28 fold

SMILES: NC(=O)c1cccnc1 [Nicotinamide]
- SIRT1 Vmax decrease ([1]; 50 μM nicotinamide, absence of resveratrol, NAD+ or p53-382 acetylated peptide varied): 30% and 36%

SMILES: O=C(/C=C/c1ccc(O)c(O)c1)c1ccc(O)cc1O [butein]
- Average lifespan [5]: 35.5 generations

SMILES: Oc1cc(O)cc(/C=C/c2ccc(O)c(O)c2)c1 [piceatannol]
- Average lifespan [5]: 24.0 generations

Reference: patent US7544497B2, “Compositions for manipulating the lifespan and stress response of cells and organisms” (President and Fellows of Harvard College, priority 2003, dated 2009)
